The subject of assay [1] is A375 cells (malignant melanoma). Put plainly: Inhibition of cancer cell proliferation, A375 (CellTiterGlo, 72 hours). To be noted: Homo sapiens, A-375. The format is cell-based. Summed up: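 GI50 derived from % growth inhibition relative to untreated wells, after luminescence (CellTiterGlo, 10 min) was converted to cell counts using a standard curve. Compound given as 3-fold dilutions from a 2× 5,000 nM stock in serum-free DMEM; 3000 A375 cells/well, 72 h culture at 37 °C.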

Assay [2] deals with ERK1/2 phosphorylation of p90RSK in HT29 cells. Put plainly: pRSK MSD Assay in HT29 cells. The format is cell-based. The settings on record: Homo sapiens, HT-29, read-out: ERK1/ERK2 PRSK MSD HT29 EC50. In short, it runs like this:
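Phospho-RSK level, read by electrochemiluminescence on RSK-antibody-coated MSD plates with a phospho-RSK/Sulfo-tag detection pair, reports cellular ERK1/2 activity. HT29 cells, kept overnight in 0.1% FBS medium, were exposed to compound for 120 min at 37° C before lysis.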

The test system of assay [3] is HT-29 cells (colorectal adenocarcinoma). The assay is described as follows: Inhibition of cancer cell proliferation, HT-29 (CellTiterGlo, 72 hours). The settings on record: Homo sapiens. The format is cell-based. Summed up:
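Proliferation over 72 h at 37° C was read by CellTiterGlo luminescence, translated to cell counts with a cell-density standard curve (390–50,000 cells). Compound added as 3-fold dilutions from a 5,000 nM two-fold stock to 3000 seeded HT-29 cells; GI50 from percent inhibition relative to untreated wells.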
(In general: ATP-based viability assays read luminescence as a measure of living cells.)

Assay [4] concerns HCT116 cells (colorectal carcinoma). Put plainly: Inhibition of cancer cell proliferation, HCT116 (CellTiterGlo, 72 hours). The format is cell-based. The settings on record: Homo sapiens, HCT-116. How it is done: Measurement of Inhibition of Cancer Cell Proliferation (HCT116/Colorectal Carcinoma)
The following protocol used a HCT116 cell line, which cell line is a model for colorectal carcinoma. HCT116 cells were split and 3000 cells in 100 μl of growth medium were added per well of a flat-bottom 96-well plate. A two-fold test compound solution in serum-free RPM1640 was made, starting at 5,000 nM. Then, 3-fold serial dilutions were made across the plate from well 1 to well 11. Well 12, the last well in a row on the plate, was left as untreated control. 100 μl compound solutions were then transferred to the wells, so the total volume of media was 200 μl per well. Plates were returned to a 37° C. incubator, and the cells were cultured for 72 hours. To measure cell proliferation after 72 hours, media was discarded from the plates, 50 μl/well of fresh medium was added, and 50 μl CellTiterGlo solution was added (Promega Cat#G7573). The plate was covered with a dark lid and incubated for 10 min. A white sealing tape was applied to the bottom of the plate, and the plate was read in a luminescence plate reader. […] 50 μl CellTiterGlo was added per well, and the plate was read in a luminescence plate reader after 10 min. The reading was plotted vs. cell number to generate a standard curve and the equation of the curve fit. The compound-treated sample luminescence readings were converted to cell numbers using the curve-fit equation. The percent of inhibition, using untreated control as 100% growth, was then calculated. GI50 was then calculated by GraphPad Prism.

In assay [5] the target is T1, MEK1 activated ERK1 (Homo sapiens, UniProt P27361).
T1 construct: purchased Millipore (Billerica, Mass.) 14-439-K
T1 sequence (P27361 whole entry): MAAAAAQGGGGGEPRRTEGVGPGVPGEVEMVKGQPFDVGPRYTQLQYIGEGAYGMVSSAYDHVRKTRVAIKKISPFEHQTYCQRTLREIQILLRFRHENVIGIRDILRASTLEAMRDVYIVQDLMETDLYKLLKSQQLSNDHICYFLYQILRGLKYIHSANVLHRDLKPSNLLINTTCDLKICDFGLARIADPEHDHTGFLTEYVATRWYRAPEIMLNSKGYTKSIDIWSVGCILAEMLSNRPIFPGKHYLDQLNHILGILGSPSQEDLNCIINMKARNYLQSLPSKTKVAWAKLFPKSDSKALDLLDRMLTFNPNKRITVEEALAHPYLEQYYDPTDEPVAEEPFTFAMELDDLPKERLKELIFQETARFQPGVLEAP
The assay is described as follows: Omnia continuous-read kinase assay for potency against MEK1 activated ERK1. The format is biochemical. To be noted: MEK1 activated ERK1, ATP at KM; read-out: ERK1 Omnia WT ATP KM IC50. In short, it runs like this:
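Apparent IC50 came from initial reaction slopes (RFU vs time) plotted against log inhibitor with a variable-slope fit. Reactions were started with ERK1 (4 nM final) added to 50 μM ATP, roughly at its appKM, and 10 μM Sox-conjugated ST17 peptide in 20 mM Tris pH 7.5, 5 mM MgCl2. Fluorescence was monitored every 71 seconds.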

Assay [6] has as its target T2, Erk1 (Homo sapiens, UniProt P27361).
T2 construct: purchased Millipore 14-439
Put plainly: Protein Mass Modification Assay (intact protein MALDI, 60 min, 10-fold excess of compound). The format is binding. Summed up: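 Percent covalent modification comes from the intact-protein MALDI centroid mass shift, treated versus control, divided by compound MW. Before analysis, human Erk1 was exposed to compound at 10-fold excess over protein for 60 min at room temperature.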

The GI50 is the concentration giving 50% growth inhibition. Read a low GI50 as more potent growth inhibition. For orientation: IC50 means the concentration needed to halve the response being measured.

T2 sequence (P27361 whole entry): as above

Consider `C=CC(=O)Nc1ccccc1Nc1nc(N[C@H]2CCCN(C(C)=O)C2)ncc1C(F)(F)F` [Compound I-10, (S)—N-(2-(2-(1-acetylpiperidin-3-ylamino)-5-(trifluoromethyl)pyrimidin-4-ylamino)phenyl)acrylamide], for which the GI50 in assay [1], in assay [3] and in assay [4] was less than 100 nM throughout. In assay [2], the EC50 is less than 100 nM.
Consider `C=CC(=O)Nc1cc(C)ccc1Nc1nc(N[C@H]2CCCN(C(C)=O)C2)ncc1C(F)(F)F` [Compound I-19, (S)—N-(2-((2-((1-Acetylpiperidin-3-yl)amino)-5-(trifluoromethyl)pyrimidin-4-yl)amino)-5-methylphenyl)acrylamide], for which the GI50 in assay [1], in assay [3] and in assay [4] was less than 100 nM throughout. Moreover, the EC50 in assay [2] is less than 100 nM.
Take `C=CC(=O)Nc1cc(C)ccc1Nc1nc(N[C@H]2CCCN(C(=O)CO)C2)ncc1C(F)(F)F` [Compound I-20, (S)—N-(2-((2-((1-(2-Hydroxyacetyl)piperidin-3-yl)amino)-5-(trifluoromethyl)pyrimidin-4-yl)amino)-5-methylphenyl)acrylamide]: the GI50 in assay [1], in assay [3] and in assay [4] was less than 100 nM in each case. The EC50 in assay [2] is less than 100 nM.
Consider `C=CC(=O)Nc1ccccc1Nc1nc(N[C@H]2CCCN(C(=O)C=O)C2)ncc1C(F)(F)F` [Compound I-52, (S)—N-(2-((2-((1-(2-Oxoacetyl)piperidin-3-yl)amino)-5-(trifluoromethyl)pyrimidin-4-yl)amino)phenyl)acrylamide], for which the GI50 in assay [1] was 101 to 500 nM; in assay [3], 101 to 500 nM; in assay [4], more than 1000 nM. Besides, the IC50 in assay [5] is 101 to 500 nM.
`C=C(F)C(=O)Nc1ccccc1Nc1nc(N[C@H]2CCCN(C(C)=O)C2)ncc1C(F)(F)F` [Compound I-55, (S)—N-(2-((2-((1-Acetylpiperidin-3-yl)amino)-5-(trifluoromethyl)pyrimidin-4-yl)amino)phenyl)-2-fluoroacrylamide]: the GI50 is less than 100 nM in assay [1], less than 100 nM in assay [3] and 101 to 500 nM in assay [4]. The EC50 in assay [2] was in the range of 101 to 500 nM.
For the compound `C=CC(=O)Nc1ccccc1Nc1nc(Nc2cncc(OC)c2)ncc1C(F)(F)F` [Compound I-86, N-(2-((2-((5-Methoxypyridin-3-yl)amino)-5-(trifluoromethyl)pyrimidin-4-yl)amino)phenyl)acrylamide], the GI50 in assay [1], in assay [3] and in assay [4] was less than 100 nM each time. Moreover, the “ERK1 Mass Mod (%)” value in assay [6] is recorded as “E (a mass modification of ≧70%)”. For the same compound, in assay [2], the EC50 is less than 100 nM.
As for `C=CC(=O)Nc1ccccc1Nc1nc(N[C@H]2CCCN(C(=O)CO)C2)ncc1Cl` [Compound I-123, (S)—N-(2-((5-chloro-2-((1-(2-hydroxyacetyl)piperidin-3-yl)amino)pyrimidin-4-yl)amino)phenyl)acrylamide], the GI50 in assay [1], in assay [3] and in assay [4] was less than 100 nM each time. Moreover, the EC50 in assay [2] is less than 100 nM.
On to `C=CC(=O)Nc1cc(C)ccc1Nc1nc(N[C@H]2CCCN(C(C)=O)C2)ncc1Cl` [Compound I-139, (S)—N-(2-((2-((1-acetylpiperidin-3-yl)amino)-5-chloropyrimidin-4-yl)amino)-5-methylphenyl)acrylamide], for which the GI50 in assay [1], in assay [3] and in assay [4] was less than 100 nM in each case. Further, the “ERK1 Mass Mod (%)” value in assay [6] is “E (a mass modification of ≧70%)”. The EC50 in assay [2] is less than 100 nM.
With `C=CC(=O)Nc1cc(OC)ccc1Nc1nc(Nc2cc(C(N)=O)ccc2C)ncc1Cl` [Compound I-237, 3-((4-((2-acrylamido-4-methoxyphenyl)amino)-5-chloropyrimidin-2-yl)amino)-4-methylbenzamide], the GI50 is less than 100 nM in assay [1], less than 100 nM in assay [3] and 501 to 999 nM in assay [4]. Further, the EC50 in assay [2] fell in the range of 101 to 500 nM.
For `C=CC(=O)Nc1cc(C)ccc1Nc1nc(Nc2cc(C(C)=O)ccc2C)ncc1Cl` [Compound I-239, N-(2-((2-((5-acetyl-2-methylphenyl)amino)-5-chloropyrimidin-4-yl)amino)-5-methylphenyl)acrylamide], the results for the GI50 in assay [1], in assay [3] and in assay [4] were 101 to 500 nM, 101 to 500 nM and 501 to 999 nM, respectively. For the same compound, the “ERK1 Mass Mod (%)” value in assay [6] is given as “E (key: E: a mass modification of ≧70%; F: a mass modification of 31-69%; G: a mass modification ≦30%)”. For the same compound, the IC50 in assay [5] lay in the range of 101 to 500 nM.
For `C=CC(=O)Nc1ccccc1Nc1nc(Nc2cc(OC)ncc2C)ncc1Cl` [Compound I-240, N-(2-((5-chloro-2-((2-methoxy-5-methylpyridin-4-yl)amino)pyrimidin-4-yl)amino)phenyl)acrylamide], the GI50 in assay [1] is less than 100 nM; in assay [3], less than 100 nM; in assay [4], 101 to 500 nM. Moreover, the EC50 in assay [2] was less than 100 nM.
Turning to `C=CC(=O)Nc1cc(C)ccc1Nc1nc(Nc2cc(OC)ncc2C)ncc1Cl` [Compound I-241, N-(2-((5-chloro-2-((2-methoxy-5-methylpyridin-4-yl)amino)pyrimidin-4-yl)amino)-5-methylphenyl)acrylamide], the GI50 in assay [1] was 101 to 500 nM; in assay [3], less than 100 nM; in assay [4] it was 101 to 500 nM. In addition, the EC50 in assay [2] was less than 100 nM.
As for `C=CC(=O)Nc1cc(Cl)ccc1Nc1nc(Nc2cc(OC)ncc2C)ncc1Cl` [Compound I-248, N-(5-chloro-2-((5-chloro-2-((2-methoxy-5-methylpyridin-4-yl)amino)pyrimidin-4-yl)amino)phenyl)acrylamide], the GI50 was 501 to 999 nM in assay [1], 501 to 999 nM in assay [3] and more than 1000 nM in assay [4].
For the compound `CCC(=O)Nc1ccccc1Nc1nc(N[C@H]2CCCN(C(=O)CO)C2)ncc1Cl` [Compound I-311, (S)—N-(2-((5-chloro-2-((1-(2-hydroxyacetyl)piperidin-3-yl)amino)pyrimidin-4-yl)amino)phenyl)propionamide], the GI50 was more than 1000 nM in assay [1], 501 to 999 nM in assay [3] and more than 1000 nM in assay [4]. In addition, in assay [2], the EC50 lay within 501 to 999 nM.

The record behind these values is US9561228B2 (Celgene Avilomics Research, Inc., priority 2013, dated 2017).
